From publication PMC3369275 (Tetrahedron, 2012)
pIC50: −log10 of the molar value.

What was measured:
NF-κB (p65) = NF-κB (p65) (Homo sapiens, UniProt Q04206); test: Enzyme-based ELISA NF-κB p65 inhibition assay; type: biochemical; details: for pIC50: read-out: NF-κB p65 inhibition IC50, ELISA, rocaglamide positive control; for NF-κB (p65) inhibitory activity (result in words): inactive = IC50 > 10 µM
[1] = system: HT-29 human colon cancer cell line
[2] = system: panel of human cancer cell lines; details: reported previously; cited from earlier work

Sequence of NF-κB (p65) (Q04206 whole entry): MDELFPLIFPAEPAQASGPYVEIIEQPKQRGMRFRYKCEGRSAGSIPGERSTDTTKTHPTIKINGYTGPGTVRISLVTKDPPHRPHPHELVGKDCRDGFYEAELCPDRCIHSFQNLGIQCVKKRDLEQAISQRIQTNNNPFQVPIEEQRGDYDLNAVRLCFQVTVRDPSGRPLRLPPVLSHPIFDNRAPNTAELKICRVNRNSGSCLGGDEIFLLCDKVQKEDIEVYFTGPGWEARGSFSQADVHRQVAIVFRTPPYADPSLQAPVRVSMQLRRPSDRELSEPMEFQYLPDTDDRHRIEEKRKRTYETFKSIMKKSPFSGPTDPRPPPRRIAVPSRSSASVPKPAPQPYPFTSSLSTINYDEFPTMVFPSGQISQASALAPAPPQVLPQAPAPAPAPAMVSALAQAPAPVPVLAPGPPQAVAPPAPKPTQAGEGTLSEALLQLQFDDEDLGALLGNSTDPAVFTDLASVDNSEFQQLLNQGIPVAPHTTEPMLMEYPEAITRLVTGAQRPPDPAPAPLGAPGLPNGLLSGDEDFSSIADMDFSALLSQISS

Compound	pIC50 (NF-κB (p65))	NF-κB (p65) inhibitory activity (result in words) (NF-κB (p65))	pIC50 [1]	Cytotoxicity toward a panel of human cancer cell lines (result in words) [2]
4,5-dihydrolychnopholide [Compound 13]	< 5.00			
15-deoxygoyazensolide [Compound 10]	5.49	active	6.59	
C=C1C(=O)OC2CC(C)CCC(=O)C(C)(OC(C)=O)CC(OC(=O)C(C)=CC)C12 [Compound 3, (4S,6R,7S,8S,10R)-1-oxo-8-angeloyloxy-10-acetoxygermacra-11(13)-en-6,12-olide]	< 5.00		5.52	
C=C1C(=O)O[C@@H]2C/C(C)=C\CC(=O)[C@](C)(OC(C)=O)C[C@H](OC(=O)/C(C)=C\C)[C@@H]12 [Compound 4, (6R,7S,8S,10R)-1-oxo-8-angeloyloxy-10-acetoxygermacra-3(4),11(13)-dien-6,12-olide]	< 5.00			
C=C1C(=O)OC2CC(C)C(OC)CC(=O)C(C)(OC(C)=O)CC(OC(=O)C(C)=CC)C12 [Compound 5, (3R,4R,6R,7S,8S,10R)-1-oxo-3-methoxy-8-angeloyloxy-10-acetoxygermacra-11(13)-en-6,12-olide]	5.68	active		
C=C1C(=O)OC2CC(C)C(OC)CC(=O)C(C)(O)CC(OC(=O)C(C)=CC)C12 [Compound 6, (3R,4R,6R,7S,8S,10R)-1-oxo-3-methoxy-8-angeloyloxy-10-hydroxygermacra-11(13)-en-6,12-olide]	< 5.00			
C=C1C(=O)O[C@@H]2C[C@@H](C)/C=C\C(=O)[C@](C)(OC(C)=O)C[C@H](OC(=O)/C(C)=C\C)[C@@H]12 [Compound 7, ereglomerulide]	< 5.00			
C=C(C)C(=O)O[C@H]1C[C@@]2(C)OC(=CC2=O)/C(CO)=C\[C@H]2OC(=O)C(=C)[C@H]12 [Compound 8, goyazensolide]	5.42	active		exhibit cytotoxicity
C=C1C(=O)O[C@@H]2/C=C(/C)C3=CC(=O)[C@@](C)(C[C@H](OC(=O)/C(C)=C\C)[C@@H]12)O3 [Compound 12, lychnopholide]	5.54	active		exhibit cytotoxicity
C=C1C(=O)O[C@H]2[C@H]1CC/C(C)=C/CC[C@@]1(C)O[C@@H]21 [parthenolide, reference compound]				exhibit cytotoxicity
